According to ChEMBL document CHEMBL1131955, “Solid-phase synthesis of novel inhibitors of farnesyl transferase” (Bioorg Med Chem Lett, 1999):

Legend:
[1] = target: Protein farnesyltransferase (Rattus norvegicus, UniProt Q02293+Q04631); assay: In vitro inhibition of rat brain cytosol farnesyl transferase
[2] = target: geranylgeranyltransferase type-I (Rattus norvegicus, UniProt P53610+Q04631); assay: In vitro inhibition of rat brain cytosol Geranylgeranyl transferase type I

SMILES	IC50 [1]	IC50 [2]
CC(C)=CCC/C(C)=C/CC/C(C)=C/COc1c(F)c(O)c([N+](=O)[O-])c(F)c1F	6.3 µM	12.5 µM
C=C(C)C1CC=C(COc2c(F)c(O)c([N+](=O)[O-])c(F)c2F)CC1 (centres undefined)	120 µM	85 µM
O=[N+]([O-])c1c(O)c(F)c(OCc2ccc(-c3ccccc3)cc2)c(F)c1F	200 µM	> 200 µM
O=[N+]([O-])c1c(O)c(F)c(OCc2ccccc2)c(F)c1F	> 200 µM	58 µM
CCCCCCCCCCCCOc1c(F)c(O)c([N+](=O)[O-])c(F)c1F	> 100 µM	> 100 µM
O=[N+]([O-])c1c(O)c(F)c(OCc2ccc3ccccc3c2)c(F)c1F	200 µM	> 200 µM
C=CCOc1c(F)c(O)c([N+](=O)[O-])c(F)c1F	> 200 µM	> 200 µM
